According to patent publication US8686050B2, “Diglycidic ether derivative therapeutics and methods for their use” (British Columbia Cancer Agency Branch, priority 2008, dated 2014):
“Also recorded” adds a separate entry of the source. Counter-ions that a name gives are not always drawn.

Experiments:
[1] = target: T1, Gal4 DBD-AR1-558 (AR NTD) (Homo sapiens, UniProt P10275); assay: Transactivation of the AR NTD (Gal4 DBD-AR1-558 with 5xGal4UAS-luciferase) in LNCaP cells; format: cell-based; conditions: LNCaP cells, 185-9-2 5 ug/ml=12 μM, bicalutamide 10 μM
T1 construct: cloning amino acids 1-558 of the human AR NTD into the C-terminus of Gal4 DBD; expressed in transfected cells; host or cells: LNCaP
T1 sequence (P10275 1-558): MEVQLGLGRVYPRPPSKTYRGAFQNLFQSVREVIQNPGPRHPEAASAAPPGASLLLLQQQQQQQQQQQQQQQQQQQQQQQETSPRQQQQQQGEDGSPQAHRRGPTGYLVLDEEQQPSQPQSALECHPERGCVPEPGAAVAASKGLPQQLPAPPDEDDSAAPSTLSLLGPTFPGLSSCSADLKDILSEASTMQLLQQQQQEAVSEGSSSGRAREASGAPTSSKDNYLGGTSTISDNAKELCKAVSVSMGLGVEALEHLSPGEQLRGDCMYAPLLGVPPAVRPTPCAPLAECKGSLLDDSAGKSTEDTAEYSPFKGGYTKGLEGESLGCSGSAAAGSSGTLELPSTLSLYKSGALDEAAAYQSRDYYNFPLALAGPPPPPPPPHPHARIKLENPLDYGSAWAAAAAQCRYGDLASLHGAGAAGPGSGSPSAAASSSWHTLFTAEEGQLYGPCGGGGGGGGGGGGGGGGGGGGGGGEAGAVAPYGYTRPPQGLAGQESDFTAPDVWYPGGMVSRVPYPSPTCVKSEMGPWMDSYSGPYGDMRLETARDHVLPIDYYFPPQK
From the text: These fractions were next tested for their ability to inhibit the AR NTD. […] Extracts identified above were screened by such assays as well as some compounds purchased from commercial suppliers.
Expression vectors for these chimeric proteins were cotransfected into LNCaP cells with a reporter gene containing the Gal4-binding site as cis-acting elements (p5×Gal4UAS-TATA-luciferase).

VEGF = VEGF staining of harvested LNCaP xenografts; format: in vivo, mice; conditions: harvested at day 25 from castrated hosts
From the text: Angiogenesis in prostate cancer is predominantly dependent upon vascular endothelial growth factor (VEGF). Testosterone is a potent inducer of VEGF in the prostate (Häggström et al 1999 J Urol. 161, 1620-1625) and re-expression of VEGF in androgen independent tumours is consistent with the re-expression of androgen-regulated genes (Gregory et al 1998 Cancer Res. 58, 5718-5724). Expression of VEGF is associated with androgen independence (Mitsiades et al 2001 Expert Opin Investig Drugs. 10, 1099-1115) and aggressive metastatic disease (Harper et al 1998 J Pathol. 186, 169-177; Balbay et al 1999 Clin Cancer Res. 5, 783-789; Melnyk et al 1999 J Urol. 161, 960-963).

PC3 xenografts = assay: PC3 subcutaneous xenografts in non-castrated mice; format: in vivo, NOD-SCID male mice; conditions: 20 mg/kg body weight every 5 days, listed as PNG01-185-017-9-2, 20 mg/kg
Description: Six to eight-week old male athymic SCID mice were inoculated subcutaneously in the flank region via a 27-gauge needle with a 150 μl suspension of LNCaP or PC3 human prostate cancer cells (1×10^6 cells). The inoculations took place while the animal was under isofluorane anaesthesia. The tumor take rate is approximately 75%. Mice bearing tumors of 100 mm^3 were randomly assigned to treatment groups. Castration was performed as described below. Tumor volume (formula: L×W×H×0.5236) was measured in mice bearing LNCaP subcutaneous tumors that became palpable or visible and at least 40 mm^3. The animals were monitored daily and tumors were measured every 5 days.

AR = target: T2, AR (Homo sapiens, UniProt P10275, T878A); assay: Western blot of AR protein in LNCaP whole cell lysates; format: cell-based; parameters: LNCaP cells express endogenous AR and secrete prostate-specific antigen (PSA); endogenous in cells; host or cells: LNCaP
T2 sequence (P10275 1-920 T878A): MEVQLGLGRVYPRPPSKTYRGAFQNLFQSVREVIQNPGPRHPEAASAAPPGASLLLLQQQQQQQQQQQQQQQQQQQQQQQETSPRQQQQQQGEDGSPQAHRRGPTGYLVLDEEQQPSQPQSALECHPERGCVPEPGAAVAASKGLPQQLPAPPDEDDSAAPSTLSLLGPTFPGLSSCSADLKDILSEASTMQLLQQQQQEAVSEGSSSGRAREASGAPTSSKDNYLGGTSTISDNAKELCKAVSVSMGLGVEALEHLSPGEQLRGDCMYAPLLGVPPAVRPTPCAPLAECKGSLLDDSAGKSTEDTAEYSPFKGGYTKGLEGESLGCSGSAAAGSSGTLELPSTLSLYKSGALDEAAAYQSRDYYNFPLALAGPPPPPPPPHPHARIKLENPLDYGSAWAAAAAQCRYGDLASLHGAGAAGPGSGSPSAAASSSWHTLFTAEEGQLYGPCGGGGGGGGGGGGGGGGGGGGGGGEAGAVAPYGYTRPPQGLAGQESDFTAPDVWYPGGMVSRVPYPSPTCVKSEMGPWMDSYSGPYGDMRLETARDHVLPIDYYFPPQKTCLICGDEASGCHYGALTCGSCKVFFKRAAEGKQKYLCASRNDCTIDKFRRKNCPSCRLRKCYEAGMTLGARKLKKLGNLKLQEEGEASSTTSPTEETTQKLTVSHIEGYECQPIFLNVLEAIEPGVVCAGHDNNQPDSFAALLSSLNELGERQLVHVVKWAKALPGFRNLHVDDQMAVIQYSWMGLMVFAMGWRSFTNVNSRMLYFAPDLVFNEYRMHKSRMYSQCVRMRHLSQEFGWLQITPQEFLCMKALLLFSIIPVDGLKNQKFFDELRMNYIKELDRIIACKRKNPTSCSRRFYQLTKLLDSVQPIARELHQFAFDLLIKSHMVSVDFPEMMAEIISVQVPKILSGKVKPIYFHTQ

`CC(C)(c1ccc(OCC(O)CO)cc1)c1ccc(OCC(O)CCl)cc1` (stereo not shown) [185-9-2, BADGE.HCL.H2O] was tested, and the “FSK-induced transactivation of the AR NTD” value ([1]; FSK 50 μM) was “to baseline levels; also recorded: blocked”, the “IL-6-induced transactivation of the AR NTD” value ([1]; IL-6 50 ng/ml) was “to baseline levels; also recorded: blocked” and the “VEGF protein in LNCaP xenografts” value (VEGF) was “decreased levels of vascular endothelial growth factor (VEGF) protein”. The “VEGF protein in LNCaP xenografts” value (VEGF; listed as PNG01-185-017-9-2) was “inhibited the expression of VEGF”, the “PC3 xenograft tumor growth” value (PC3 xenografts) was “had a small effect on PC3 tumor growth but did not reduce tumor burden; also recorded: did not reduce tumors but did slightly slow the growth” and the “levels of AR protein in whole cell extracts” value (AR; LNCaP cells treated 3 or 16 hours) was “does NOT decrease levels of AR protein; also recorded: not decreased”. For the same compound, the “levels of AR protein, long term incubation” value (AR; LNCaP cells, 48 hrs, presence or absence of DHT) was “did not reduce levels of AR protein”.
